ChEMBL document CHEMBL1201862, “PubChem BioAssay data set” (2004)
The source made the active and inactive calls.

Columns and labels:
[1] = Trypanosoma cruzi growth suppression in host cells – NIH3T3 host cells, beta-gal luminescence, confirmation (AID 2044); type: functional, cell-based;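 note: intracellular parasites grown in NIH/3T3 mouse fibroblasts as host cells; luminescent beta-galactosidase reporter signal from transgenic T. cruzi replicating inside host cells; inhibitors lower the luminescence signal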
[2] = NIH3T3 cell viability loss – ATP luminescence, mouse fibroblasts, counter-screen, dose response (AID 2010); type: functional, cell-based;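 note: cells exposed to compound for about 90 hours before reading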
[3] = biological target: 5-hydroxytryptamine receptor 1A (Homo sapiens, UniProt P08908); type: functional
Estrogen receptor = biological target: T1, Estrogen receptor (Homo sapiens, UniProt P03372);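 note: potency for inhibiting coactivator peptide recruitment to the receptor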
T1 sequence (P03372 whole entry): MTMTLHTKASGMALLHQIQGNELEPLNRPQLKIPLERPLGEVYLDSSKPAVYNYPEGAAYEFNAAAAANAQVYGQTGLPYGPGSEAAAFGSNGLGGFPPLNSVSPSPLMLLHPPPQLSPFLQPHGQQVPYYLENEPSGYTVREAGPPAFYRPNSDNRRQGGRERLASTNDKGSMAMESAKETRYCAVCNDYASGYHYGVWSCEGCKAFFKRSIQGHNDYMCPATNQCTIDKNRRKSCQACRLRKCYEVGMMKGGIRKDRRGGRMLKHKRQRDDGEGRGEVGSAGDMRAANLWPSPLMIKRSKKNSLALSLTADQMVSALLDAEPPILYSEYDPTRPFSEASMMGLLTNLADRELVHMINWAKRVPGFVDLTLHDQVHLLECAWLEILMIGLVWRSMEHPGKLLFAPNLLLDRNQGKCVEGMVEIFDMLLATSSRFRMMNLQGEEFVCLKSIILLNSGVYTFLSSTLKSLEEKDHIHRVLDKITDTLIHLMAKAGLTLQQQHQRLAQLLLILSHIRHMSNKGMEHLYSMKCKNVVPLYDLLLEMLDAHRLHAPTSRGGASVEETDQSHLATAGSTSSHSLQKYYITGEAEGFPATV

Estrogen receptor beta = Estrogen receptor beta (Homo sapiens, UniProt Q92731);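 note: recombinant ER-beta bound to coactivator SRC1 peptide in presence of estradiol agonist; inhibitors block coactivator peptide binding and lower the FRET signal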
BJ [4] = assay: BJ-TERT fibroblast viability loss – cell-based, RAS-independent, luminescence, dose response (AID 1933); type: functional; settings: Homo sapiens
Beta-galactosidase = Beta-galactosidase (Escherichia coli, UniProt Q8VNN2); assay: PubChem AID 485352; type: functional
Vero [5] = assay: mammalian cell viability reduction – secondary assay, cytotoxicity control for West Nile virus antiviral project, dose response (AID 1650); type: functional; settings: Chlorocebus sabaeus
BJ [6] = assay: cells; type: functional, cell-based; settings: Homo sapiens
[7] = Luminescence-based dose response cell-based high throughput screening assay for cytotoxic compounds using the IEC-6 intestinal epithelial cell line. [Related pubchem assays: 1858 (Summary AID.), 1825 (Counterscreen.), 1907 (Confirmation screen.)]; type: functional
[8] = biological target: T2, Type-1 angiotensin II receptor (Homo sapiens, UniProt P30556); assay: antagonism of angiotensin II type 1 receptor – cell-based, uHTS hits, selectivity assay for APJ receptor antagonist project, dose response (AID 463214); type: functional;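 note: antagonist potency against angiotensin II stimulated AT1 response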
T2 sequence (P30556 whole entry): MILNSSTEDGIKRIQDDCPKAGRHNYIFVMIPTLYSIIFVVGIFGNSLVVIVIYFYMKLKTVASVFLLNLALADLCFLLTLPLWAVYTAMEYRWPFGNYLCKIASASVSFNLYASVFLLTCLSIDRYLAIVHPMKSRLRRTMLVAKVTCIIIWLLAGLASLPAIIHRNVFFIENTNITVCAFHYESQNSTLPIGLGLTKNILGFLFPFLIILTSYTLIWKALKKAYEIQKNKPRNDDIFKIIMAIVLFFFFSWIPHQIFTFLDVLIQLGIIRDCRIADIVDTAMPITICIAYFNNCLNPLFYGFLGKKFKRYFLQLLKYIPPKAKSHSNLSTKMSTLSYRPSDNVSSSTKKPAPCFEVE

BJ [9] = assay: BJ-TERT-LT-ST fibroblast viability loss – cell-based, RAS-independent, luminescence, dose response (AID 1935); type: functional; settings: Homo sapiens;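 note: BJ fibroblasts immortalized with TERT plus LT and ST oncogenes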
[10] = DRD fibroblast viability loss – cell-based, non-viral oncogenic, luminescence, dose response (AID 1934); type: functional; settings: Homo sapiens
Nonstructural protein 1 = Nonstructural protein 1 (Influenza A virus, UniProt Q194T2); type: functional, Influenza A virus (A/California/07/2009(H1N1))
Vero [11] = assay: cells; type: functional, cell-based; settings: Chlorocebus sabaeus
BJ [12] = assay: growth inhibition of engineered Ras-driven BJ cells – cell-based, alamar blue fluorescence, cherrypicked samples, dose response (AID 2631); type: functional; settings: Homo sapiens;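 note: confirmatory dose-response assay in RAS-dependent BJ fibroblasts engineered with TERT, LT and ST, with cytotoxicity read by fluorescence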
INS1 = assay: INS-1E survival protection against cytokine death – cell-based, luminescence, retest, dose response (AID 449756); type: functional; settings: Rattus norvegicus;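 note: cell death triggered by IL-1 beta plus TNF-alpha plus IFN-gamma mixture; protective hits raise ATP signal compared with cytokine alone wells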
Vero [13] = assay: cells; type: functional; settings: Chlorocebus sabaeus
[14] = Luminescent dose response cell-based high throughput screening assay for inhibitors of the Janus kinase 2 mutant JAK2V617F. [Related pubchem assays: 1446 (Primary screen.), 1521 (Confirmation assay.), 1486 (Counter screen.)]; type: functional
[15] = biological target: Diphosphomevalonate decarboxylase (Streptococcus pneumoniae serotype 2 (strain D39 / NCTC 7466), UniProt Q9FD53); assay: diphosphomevalonate decarboxylase inhibitor confirmation – biochemical, cuvette format, coupled NADH fluorescence (AID 1028); type: functional
[16] = biological target: Voltage-gated inwardly rectifying potassium channel KCNH2 (Homo sapiens, UniProt Q12809); assay: concentration-dependent hERG rescue from blockers – cell-based, thallium flux, dose response (AID 2121); type: ADME
Vero [17] = assay: Vero 76 cell viability after compound exposure – Vero 76 cells, synthesized analogs, cytotoxicity control for West Nile virus antiviral project, SAR follow-up (AID 2414); type: functional; settings: Chlorocebus sabaeus
Vero [18] = assay: Vero cell viability after compound exposure – synthesized analogs, set II, cytotoxicity control for West Nile virus antiviral project, SAR follow-up (AID 2402); type: functional; settings: Chlorocebus sabaeus

Beta-galactosidase, sequence (Q8VNN2 whole entry): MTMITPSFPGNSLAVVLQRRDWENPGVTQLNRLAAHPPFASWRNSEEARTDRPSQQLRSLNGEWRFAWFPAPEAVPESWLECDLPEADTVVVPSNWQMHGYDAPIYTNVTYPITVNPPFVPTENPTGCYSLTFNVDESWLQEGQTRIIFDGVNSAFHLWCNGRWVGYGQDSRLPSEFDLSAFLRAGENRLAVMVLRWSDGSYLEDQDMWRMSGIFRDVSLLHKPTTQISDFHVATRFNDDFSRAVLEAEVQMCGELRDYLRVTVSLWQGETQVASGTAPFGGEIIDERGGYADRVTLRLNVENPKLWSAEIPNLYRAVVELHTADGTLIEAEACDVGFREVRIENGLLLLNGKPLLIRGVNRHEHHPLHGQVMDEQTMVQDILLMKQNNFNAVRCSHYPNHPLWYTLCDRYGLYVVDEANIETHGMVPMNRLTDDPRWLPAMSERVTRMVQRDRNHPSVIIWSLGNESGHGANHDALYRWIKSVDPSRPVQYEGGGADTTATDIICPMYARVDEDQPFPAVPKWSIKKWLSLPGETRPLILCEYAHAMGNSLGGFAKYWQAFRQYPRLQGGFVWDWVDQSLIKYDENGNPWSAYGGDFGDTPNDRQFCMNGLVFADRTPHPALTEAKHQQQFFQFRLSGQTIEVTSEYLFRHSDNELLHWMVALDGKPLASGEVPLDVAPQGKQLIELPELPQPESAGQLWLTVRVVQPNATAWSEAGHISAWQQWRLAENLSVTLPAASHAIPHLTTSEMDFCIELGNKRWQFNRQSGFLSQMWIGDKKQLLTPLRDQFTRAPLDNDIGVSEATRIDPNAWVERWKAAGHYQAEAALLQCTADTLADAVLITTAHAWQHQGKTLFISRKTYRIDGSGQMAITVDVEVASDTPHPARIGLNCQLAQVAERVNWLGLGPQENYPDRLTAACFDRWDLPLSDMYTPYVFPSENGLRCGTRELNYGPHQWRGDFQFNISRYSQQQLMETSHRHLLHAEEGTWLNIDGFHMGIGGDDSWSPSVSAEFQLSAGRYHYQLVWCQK
Diphosphomevalonate decarboxylase, sequence (Q9FD53 whole entry): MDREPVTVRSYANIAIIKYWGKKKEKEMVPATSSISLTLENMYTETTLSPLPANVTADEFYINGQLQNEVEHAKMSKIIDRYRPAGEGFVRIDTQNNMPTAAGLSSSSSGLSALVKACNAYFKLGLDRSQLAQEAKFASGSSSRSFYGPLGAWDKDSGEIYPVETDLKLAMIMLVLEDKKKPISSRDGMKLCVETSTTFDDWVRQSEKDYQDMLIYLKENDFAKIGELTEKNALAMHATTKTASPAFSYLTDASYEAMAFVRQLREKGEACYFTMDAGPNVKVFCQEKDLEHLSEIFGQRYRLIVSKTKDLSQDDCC
Voltage-gated inwardly rectifying potassium channel KCNH2, sequence (Q12809 whole entry): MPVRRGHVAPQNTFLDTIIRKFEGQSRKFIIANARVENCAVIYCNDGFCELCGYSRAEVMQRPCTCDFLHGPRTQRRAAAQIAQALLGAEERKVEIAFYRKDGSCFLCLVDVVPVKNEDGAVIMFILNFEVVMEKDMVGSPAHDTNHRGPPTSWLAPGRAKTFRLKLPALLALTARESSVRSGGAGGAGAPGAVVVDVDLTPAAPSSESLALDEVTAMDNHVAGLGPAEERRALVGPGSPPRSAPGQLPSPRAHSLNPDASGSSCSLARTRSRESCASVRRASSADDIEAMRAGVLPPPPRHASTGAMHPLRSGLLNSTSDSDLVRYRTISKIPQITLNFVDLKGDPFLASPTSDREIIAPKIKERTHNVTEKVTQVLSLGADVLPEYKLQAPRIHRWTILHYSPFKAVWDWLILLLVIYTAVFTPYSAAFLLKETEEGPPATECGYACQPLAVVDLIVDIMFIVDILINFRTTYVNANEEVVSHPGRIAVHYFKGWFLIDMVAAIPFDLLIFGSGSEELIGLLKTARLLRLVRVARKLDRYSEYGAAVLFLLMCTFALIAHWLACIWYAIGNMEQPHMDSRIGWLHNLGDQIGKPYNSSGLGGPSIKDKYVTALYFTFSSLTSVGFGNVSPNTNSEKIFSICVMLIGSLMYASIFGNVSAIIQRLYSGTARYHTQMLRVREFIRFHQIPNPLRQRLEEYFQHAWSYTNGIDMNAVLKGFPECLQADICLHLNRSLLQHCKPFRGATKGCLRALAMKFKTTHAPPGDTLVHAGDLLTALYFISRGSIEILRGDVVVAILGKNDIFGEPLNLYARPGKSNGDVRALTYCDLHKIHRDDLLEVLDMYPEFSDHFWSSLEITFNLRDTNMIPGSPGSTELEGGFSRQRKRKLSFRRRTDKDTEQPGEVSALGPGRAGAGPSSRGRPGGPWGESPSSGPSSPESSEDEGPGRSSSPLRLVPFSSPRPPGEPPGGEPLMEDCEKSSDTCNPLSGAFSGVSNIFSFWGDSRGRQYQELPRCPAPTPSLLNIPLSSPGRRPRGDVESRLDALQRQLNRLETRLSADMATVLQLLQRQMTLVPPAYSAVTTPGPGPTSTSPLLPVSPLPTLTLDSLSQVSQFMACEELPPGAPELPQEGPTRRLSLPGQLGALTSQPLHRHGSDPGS
Estrogen receptor beta, sequence (Q92731 whole entry): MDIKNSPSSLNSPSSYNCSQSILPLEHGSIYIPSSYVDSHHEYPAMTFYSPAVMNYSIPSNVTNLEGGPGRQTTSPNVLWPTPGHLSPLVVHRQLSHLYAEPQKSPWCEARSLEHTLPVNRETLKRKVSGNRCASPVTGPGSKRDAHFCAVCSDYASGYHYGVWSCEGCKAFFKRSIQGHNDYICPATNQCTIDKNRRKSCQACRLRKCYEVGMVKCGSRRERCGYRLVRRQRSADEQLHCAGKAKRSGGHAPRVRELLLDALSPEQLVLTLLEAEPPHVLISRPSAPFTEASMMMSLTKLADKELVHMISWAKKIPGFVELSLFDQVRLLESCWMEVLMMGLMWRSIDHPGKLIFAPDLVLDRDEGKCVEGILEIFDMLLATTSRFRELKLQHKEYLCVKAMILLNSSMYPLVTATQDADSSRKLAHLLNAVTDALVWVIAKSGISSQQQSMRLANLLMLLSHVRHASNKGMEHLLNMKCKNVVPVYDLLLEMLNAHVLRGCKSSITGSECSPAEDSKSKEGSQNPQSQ
Nonstructural protein 1, sequence (Q194T2 whole entry): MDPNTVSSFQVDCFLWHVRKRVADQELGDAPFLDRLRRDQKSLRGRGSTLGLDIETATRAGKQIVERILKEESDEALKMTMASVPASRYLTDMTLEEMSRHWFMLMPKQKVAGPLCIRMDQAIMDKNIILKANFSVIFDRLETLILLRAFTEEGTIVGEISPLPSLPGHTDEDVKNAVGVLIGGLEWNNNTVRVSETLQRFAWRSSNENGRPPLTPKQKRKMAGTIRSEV
5-hydroxytryptamine receptor 1A, sequence (P08908 whole entry): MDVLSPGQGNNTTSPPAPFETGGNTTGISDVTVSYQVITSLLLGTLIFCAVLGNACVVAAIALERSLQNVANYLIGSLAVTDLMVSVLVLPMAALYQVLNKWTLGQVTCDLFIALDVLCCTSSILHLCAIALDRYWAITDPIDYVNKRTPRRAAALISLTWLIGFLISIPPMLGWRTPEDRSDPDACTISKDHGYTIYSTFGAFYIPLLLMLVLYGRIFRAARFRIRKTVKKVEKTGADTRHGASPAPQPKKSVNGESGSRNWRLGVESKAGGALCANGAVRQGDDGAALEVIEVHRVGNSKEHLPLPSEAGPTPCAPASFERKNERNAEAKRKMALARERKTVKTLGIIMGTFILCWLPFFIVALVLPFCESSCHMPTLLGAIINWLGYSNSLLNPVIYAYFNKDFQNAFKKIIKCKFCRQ

CC(NS(=O)(=O)c1ccc(CCC(=O)N2CCN(C)CC2)cc1)c1ccccc1 (stereo not drawn)
EC50 [1]: < 0.1 µM (active) | EC50 [2]: > 60 µM (not active) | EC50 (cells): 0.349 µM (active)

CC(CCc1ccccc1)NC(=O)CSc1nc(N)cc(N)n1 (stereo not drawn)
EC50 [3]: > 50 µM (not active)

CC(=N)/C(C#N)=C(/O)CSc1nnc(Cc2ccccc2F)n1N
IC50 (Estrogen receptor): > 50 µM (not active) | IC50 (Estrogen receptor beta): 13.6 µM (active)

C/C(=N\NC(=O)c1ccc(F)cc1)c1ccccn1
EC50 (BJ [4]): 0.844 µM (inconclusive) | EC50 (Beta-galactosidase): > 40 µM (inactive) | CC50 (Vero [5]): 2.28 µM (active) | EC50 (BJ [6]): 1.98 µM (active) | IC50 [7]: 0.54 µM (active) | IC50 [8]: 1.96 µM (active) | EC50 (BJ [9]): 3.53 µM (active) | EC50 [10]: 5.06 µM (active) | IC50 (Nonstructural protein 1): 3 µM (active) | IC50 (Vero [11]): > 25 µM (active) | EC50 (BJ [12]): 0.475 µM (active) | AC50 (INS1): 0.523 µM (active) | CC50 (Vero [13]): 2.98 µM (active)

Cc1nn(Cc2ccc(Cl)cc2Cl)c(C)c1NC(=O)CCl
IC50 [14]: 2.44 µM (active) | EC50 (BJ [4]): 8.35 µM (active) | EC50 (BJ [6]): 21.2 µM (active) | EC50 (BJ [9]): > 150 µM (inconclusive) | EC50 [10]: 12.1 µM (active)

O=C(c1cccc(-n2sc3ccccc3c2=O)c1)N1CCCCC1
IC50 [15]: 13.6 µM (active)

COc1ccc(OC)c(NC(=S)NC(=O)c2ccc(Br)o2)c1
EC50 [16]: 0.01 µM (active)

O=C(CSc1nc2cccc(I)c2c(=O)n1-c1ccccc1)Nc1ccc2c(c1)CCC2
CC50 (Vero [17]): > 133 µM (active) | CC50 (Vero [18]): > 200 µM (active)
